What all share (type): physicochemical
Series [1] in a line: Solid-state polymorphic transformation in laboratory stress study samples (DSC). Particulars: 40° C., 70-day time-point. Here is the method:
Two Bimatoprost lots (X11192 and X10510) were subjected to a variety of experimental stress conditions at 40° C. (see Table 6). The experimental design included ambient air and argon headspaces, exposure to fluorescent light, and different surface-to-volume ratios. The 70-day time-point samples were analyzed by HPLC and DSC.

Series [2] can be described thus: Solid-state polymorphic transformation in samples of the formal stability program (DSC, IR). Particulars: stored 18 months at 25° C./60% RH. Here is the method: The colored particle was separated from the white drug substance, and DSC was performed on both. In order to determine whether bimatoprost spontaneously converts from polymorph I to polymorph II at elevated temperatures (i.e. higher than the prescribed storage temperature), a number of other lots in the formal stability program were also analyzed by DSC. All the formal stability samples tested consisted of polymorph II. Since the control (frozen) samples from the same lots were previously analyzed by DSC with the results showing that none of them contained polymorph II, there is a clear indication that a polymorphic transformation had occurred under the stability conditions employed.

Series [3] can be described thus: Determination of the aqueous solubility of polymorph II. The conditions noted are these: 0.4% suspension rotated continuously over a weekend; supernatants assayed by HPLC. As to the method:
The aqueous solubility of polymorph II was determined by preparing in duplicate a 0.4% suspension of a formal stability sample (lot X10510 stored at 25° C./60% RH for 23 months, confirmed as polymorph II). Temperature Program 1 (hold for 1.0 minute at 30° C. and then heat from 30° C. to 85° C. at 2.0° C. per minute), was used to test the 23-month stability sample by DSC to reconfirm the presence of only polymorph II (which was, indeed, the case). The suspension was allowed to rotate continuously over a weekend. The supernatants were assayed by HPLC using X11192 Secondary Reference Standard to determine the drug contents. […] Since the active pharmaceutical ingredient will be used in a formulation at a concentration that is only one-tenth of the aqueous solubility of the active pharmaceutical ingredient (as either polymorph), there is no effect of crystal habit on product characteristics or manufacturing process.

As for `CCNC(=O)CCC/C=C\C[C@@H]1[C@@H](/C=C/[C@@H](O)CCc2ccccc2)[C@H](O)C[C@@H]1O` [X10510, bimatoprost], the “polymorphic form after stress (DSC)” value in series [1] (ambient air headspace, regardless of light exposure) is “partial morphological conversion in which both polymorphs I and II were present simultaneously”. For the same compound, the “polymorphic form after storage (DSC and IR)” value in series [2] is reported as “yielded substantial amounts of polymorph II”.
With `CCNC(=O)CCC/C=C\C[C@@H]1[C@@H](/C=C/[C@@H](O)CCc2ccccc2)[C@H](O)C[C@@H]1O` [X11192, bimatoprost], in series [1] (air or argon headspace, light or dark), the “polymorphic form after stress (DSC)” value is listed as “polymorph I”.
Compound `CCNC(=O)CCCC=CCC1C(O)CC(O)C1C=CC(O)CCc1ccccc1` (stereo not shown) [polymorph II, 7-[3,5-dihydroxy-2-(3-hydroxy-5-phenyl-pent-1-enyl)-cyclopentyl]-N-ethyl-hept-5-enamide] yielded an aqueous solubility in series [3] of 0.3 % w/w.

These data come from patent US9181176B2, “7-[3,5-dihydroxy-2-(3-hydroxy-5-phenyl-pent-1-enyl)-cyclopentyl]-N-ethyl-hept-5-enamide (bimatoprost) in crystalline form II, methods for preparation, and methods for use thereof” (Allergan, Inc., priority 2009, dated 2015).
